The source of these data is patent US6677309B1, “Anti-cancer drug aldehyde conjugate drugs with enhanced cytotoxicity compounds, compositions and methods” (University Technology Corporation, priority 1997, dated 2004).

SMILES strings stand for the structures. pIC50: −log10 of the molar value. Read-outs that look alike come from different tables or passages of the source.

Test [1] concerns self-complementary DNA octamer (GC)4. Kind of test: Drug-DNA conjugate formation with (GC)4, HPLC. The note with it: 5 h. It counts as biochemical. The protocol:
The amount of available formaldehyde was 99 μM (3×33 μM). […] The experiment was also run at 25° C. in pH 6.0 phosphate buffer containing 4% DMSO. […] The ratio for conjugate 1 was assumed to be 24:1, based upon the value for conjugate 2. […] Under these circumstances, the conjugate 1 area was estimated based upon its 480 nm absorbance, assuming the 24:1 ratio for A260:A480.
The formation of drug-DNA conjugates at 25° C. was monitored by HPLC (Method II). […] The experiment was also run in pH 6.0 phosphate buffer containing 4% DMSO.

A further test concerns MCF-7 cells. Kind of test: In vitro cytotoxicity, colony formation by crystal violet assay, MCF-7. The protocol: (§1) The term IC50 as used herein refers to the concentration of drug which inhibits cell growth by 50%, i.e., 50% of cells are viable at the IC50 concentration relative to a no-drug control.
(§2) Cells were incubated with drug for 3 h in RPMI (Roswell Park Memorial Institute) 1640 media containing 10% fetal bovine serum and 1% DMSO. Plates, were developed using the crystal violet assay. […] In all cases percent survival was determined by the extent of colony formation six days after drug treatment.
(§3) All tissue culture materials were obtained from Gibco Life Technologies (Grand Island, N.Y.) unless otherwise stated. MCF-7 breast cancer cells were obtained from American Type Culture Collection (Rockville, Md.). […] Both cell lines were maintained in vitro by serial culture in phenol red-free RPMI Media 1640 supplemented with 10% fetal bovine serum (Gemini Bio-Products, Calbasas, Calif.), L-glutamine (2 mM), HEPES buffer (10 mM), penicillin (100 units/mL), and streptomycin (100 μg/mL). […] Cells were maintained at 37° C. in a humidified atmosphere of 5% CO2 and 95% air.
(§4) Cells were dissociated with trypsin-EDTA, counted, and suspended in growth media to a concentration of 5×10^3 cells/mL. Cell suspensions were dispensed in 200 μL aliquots into 96-well tissue culture plates. Plates were then incubated for 24 h at 37° C. in a humidified atmosphere of 5% CO2 and 95% air. The media was replaced with 180 μL of growth media prior to addition of the cytotoxic agents.
(§5) Concentrations were then corrected by measuring the solution absorbance at 480 nm (ε=11,500/mole anthracycline). The solutions were then serially diluted in DMSO to give a series of 100× working concentration solutions. For each concentration, the 100× solution was diluted 1:10 in serum-free RPMI Media 1640. 20 μL of the resulting […] solution was immediately added to the appropriate lane. Additionally, one lane was treated with 20 μL of 10% DMSO in serum-free RPMI (no drug) and one lane replaced with 200 μL of 1.5 M Tris buffer (no cells). The cells were incubated at 37° C. for 3 h. The drug solutions were removed and 200 μL of fresh growth media was added to each well.
(§6) The extent of colony formation was determined by use of a crystal violet staining assay (Gilles, R. J. et al. (1986), “Determination of cell number in monolayer cultures,” Anal. Biochem. 159:109-113; Reile, H. et al. (1990), “Computerized determination of growth kinetic curves and doubling times from cells in microcultures,” Anal. Biochem. 187:262-267). […] The cells were then stained with 75 μL of 0.1% crystal violet in deionized water for 30 min. […] The plates were blotted dry and 200 μL of 70% ethanol in water was added to each well to solublize the dye. The plates were stored at 4° C. until solubilization was complete (about 4 h). The optical density of each well was measured on an ELISA plate reader at 588 nm. Relative colony sizes were determined by comparison of the drug treated lanes to the control lanes.
(§7) MCF-7 breast cancer cells were obtained from American Type Culture Collection (Rockville, Md.). MCF-7/ADR adriamycin resistant breast cancer cells were a gift of Dr. William W. Wells (Michigan State University). Both cell lines were maintained in vitro by serial culture in phenol red-free RPMI Media 1640 supplemented with 10% fetal bovine serum (Gemini Bio-Products, Calbasas, Calif.), L-glutamine (2 mM), HEPES buffer ([…]), penicillin (100 units/mL), and streptomycin (100 μg/mL). […] Cells were maintained at 37° C. in a humidified atmosphere of 5% CO2 and 95% air.
1640 media containing 10% fetal bovine serum. The resulting 90% media/10% DMSO solutions (v/v) were incubated at 37° C. for 6h.

In another test the test system is PC-3. Put plainly: Prostate cancer cell cytotoxicity, crystal violet assay, PC-3. It counts as cell-based, human. The note with it: for IC50: 3 h drug. The protocol:
(§8) Toxicity to the three prostate cancer cell lines, LNCaP, DU-145, and PC-3 were measured in two different media, RPMI-1640 and DMEM (Dulbecco's Modified Eagle Medium), both supplemented with 10% fetal bovine serum.
(§9) Cell lines were maintained in vitro in RPMI 1640 media or DMEM, each supplemented with 10% fetal bovine serum, 2 mM L-glutamine, 10 mM HEPES buffer, penicillin (100 units/mL) and streptomycin (100 μg/mL).
(§10) Cells were dissociated with trypsin/EDTA, counted, and suspended in growth media (RPMI or DMEM) to a concentration of 5.6×10^3 cells/mL. Cell suspensions were dispensed in 180 μL aliquots into 96-well tissue culture plates. […] Each 100× solution was diluted 10× in growth media (RPMI or DMEM), and a 20 μL aliquot of the resulting 10× solution was immediately (<10s) added to-the appropriate lane. Additionally, one lane was treated with 20 μL of 10% DMSO in growth media (no drug) and one lane was treated with 200 μL of 1.5 M Tris buffer (no cells). The cells were incubated with the drugs for 3 h at 37° C. The drug solutions were then removed and replaced with 200 μL of fresh media. The cells were incubated for 4 days (7 days for PC-3 cells in DMEM) at 37° C. in a humidified atmosphere of 5% CO2 and 95% air. Cell survival was determined using a crystal violet assay as described earlier (Fenick, D. J. et al (1997) J. Med. Chem. 40: 2452-2461).

The next test concerns MCF-7/ADR cells. Put plainly: In vitro cytotoxicity, colony formation by crystal violet assay, MCF-7/ADR. The protocol:
as §1, §2, §3, §4, §5, §6, §7
These were then diluted 10× with autoclaved Millipore water.

A further test deals with LNCaP. Kind of test: Prostate cancer cell cytotoxicity, crystal violet assay, LNCaP. The following applies: for IC50: 3 h drug, 4 days growth. It counts as cell-based, human. The protocol: as §8, §9, §10
Another test has as its system DU-145. Kind of test: Prostate cancer cell cytotoxicity, crystal violet assay, DU-145. It counts as cell-based, human. The note with it: for IC50: 3 h drug, 4 days growth. The protocol:
as §8, §9, §10

The mark [2] stands for this setting: Homo sapiens, MCF7, read-out: IC50 Values, MCF-7.
[3] abbreviates: Homo sapiens, PC-3, DMEM with 10% fetal bovine serum, 7 days growth, read-out: IC50 Values, PC-3/DMEM (converted).
The mark [4] stands for this setting: Homo sapiens, PC-3, RPMI-1640 with 10% fetal bovine serum, 4 days growth, read-out: IC50 Values, PC-3/RPMI-1640 (converted).
The mark [5] stands for this setting: Homo sapiens, NCI/ADR-RES, read-out: IC50 Values, MCF-7-ADR.
The mark [6] stands for this setting: Homo sapiens, LNCaP, DMEM with 10% fetal bovine serum, read-out: IC50 Values, LNCaP/DMEM (converted).
Setting [7] is: Homo sapiens, LNCaP, RPMI-1640 with 10% fetal bovine serum, read-out: IC50 Values, LNCaP/RPMI-1640 (converted).
The mark [8] stands for this setting: Homo sapiens, DU-145, DMEM with 10% fetal bovine serum, read-out: IC50 Values, DU-145/DMEM (converted).

For `COc1cccc2c1C(=O)c1c(O)c3c(c(O)c1C2=O)C[C@@](O)(C(=O)CO)C[C@@H]3O[C@H]1C[C@H](N)[C@@H](O)[C@H](C)O1` [EPI, epidoxorubicin, reference compound], the “DNA reacted to form drug-DNA conjugates” value is listed as 51% in test [1] (33 μM (GC)4, 66 μM epidoxorubicin plus 99 μM formaldehyde, pH 6.0, 4% DMSO); 75% in test [1] (33 μM (GC)4, 66 μM epidoxorubicin plus 99 μM formaldehyde, pH 7.3, 4% DMSO, 25° C.); 93% in test [1] (166 μM (GC)4, 664 μM epidoxorubicin plus 996 μM HCHO, pH 7.3, 4% DMSO, 25° C.). In addition, the pIC50 with MCF-7 cells (setting [2]) is 6.70; in the test on MCF-7 cells (Homo sapiens, MCF7, read-out: IC50 Values, MCF-7, Media/Serum), less than 5.00; in the test on MCF-7/ADR cells (setting [5]) it was less than 5.00. In addition, the IC50 is 0.06 µM with PC-3 (setting [3]); 0.03 µM in the test with PC-3 (setting [4]); 0.02 µM in the test with LNCaP (setting [6]); 0.02 µM in the test with LNCaP (setting [7]); 0.04 µM with DU-145 (setting [8]).
For the compound `C=O` [formaldehyde, reference compound], the pIC50 in the test with MCF-7 cells (Homo sapiens, MCF7, read-out: IC50 value, control experiment, MCF-7) is less than 3.70; in the test with MCF-7/ADR cells (Homo sapiens, NCI/ADR-RES, read-out: IC50 value, control experiment, MCF-7/ADR) it was less than 3.70.
Consider `COc1cccc2c1C(=O)c1c(O)c3c(c(O)c1C2=O)C[C@@](O)(C(=O)CO)C[C@@H]3O[C@H]1C[C@H]2[C@@H](OCN3CN2CO[C@H]2[C@H](C)O[C@@H](O[C@H]4C[C@](O)(C(=O)CO)Cc5c(O)c6c(c(O)c54)C(=O)c4c(OC)cccc4C6=O)C[C@@H]23)[C@H](C)O1` [EPIF], for which the pIC50 in the test on MCF-7 cells (read-out: IC50 Values, MCF-7, Media/Serum, drug preincubated 6 h at 37° C. in 10% DMSO/90% RPMI 1640 containing 10% fetal bovine serum) was 6.70; in the test with MCF-7 cells (read-out: IC50 Values, MCF-7, 3 h drug incubation in RPMI 1640, 10% fetal bovine serum, 1% DMSO, colony formation six days after treatment, fresh drug solution), 7.49; in the test on MCF-7/ADR cells (read-out: IC50 Values, MCF-7-ADR, EPIF/DMSO, drug stored in DMSO (not dried) for 20 h at ambient temperature before treatment) it was 6.82; with MCF-7/ADR cells (read-out: IC50 Values, MCF-7-ADR, EPIF/H2O, drug preincubated in 90% H2O/10% DMSO at 37° C. for 20 h (equilibrium mixture with intermediates B, C, D)), 6.70; in the test with MCF-7/ADR cells (read-out: IC50 Values, MCF-7-ADR, 3 h drug incubation in RPMI 1640, 10% fetal bovine serum, 1% DMSO, colony formation six days after treatment, fresh drug solution) it was 7.46; in the test on MCF-7/ADR cells (read-out: IC50 Values, MCF-7/ADR, Media/Serum, drug preincubated 6 h at 37° C. in 10% DMSO/90% RPMI 1640 containing 10% fetal bovine serum) it was 6.82. The IC50 is 0.015 µM with PC-3 (DMEM with 10% fetal bovine serum, 7 days growth, read-out: IC50 Values, PC-3/DMEM (converted)); 0.0035 µM with PC-3 (RPMI-1640 with 10% fetal bovine serum, 4 days growth, read-out: IC50 Values, PC-3/RPMI-1640 (converted)); 0.001 µM in the test on LNCaP (DMEM with 10% fetal bovine serum, read-out: IC50 Values, LNCaP/DMEM (converted)); 0.0035 µM with LNCaP (RPMI-1640 with 10% fetal bovine serum, read-out: IC50 Values, LNCaP/RPMI-1640 (converted)); 0.004 µM in the test on DU-145 (DMEM with 10% fetal bovine serum, read-out: IC50 Values, DU-145/DMEM (converted)); 0.015 µM with DU-145 (RPMI-1640 with 10% fetal bovine serum, read-out: IC50 Values, DU-145/RPMI-1640 (converted)).
Turning to `COc1cccc2c1C(=O)c1c(O)c3c(c(O)c1C2=O)C[C@@](O)(C(=O)CO)C[C@@H]3O[C@H]1C[C@H](N)[C@H](O)[C@H](C)O1` [DOX, doxorubicin, reference compound], the IC50 in the test on PC-3 (setting [3]) is 0.06 µM; in the test with PC-3 (setting [4]), 0.03 µM; with LNCaP (setting [6]), 0.015 µM; in the test on LNCaP (setting [7]), 0.02 µM; in the test with DU-145 (setting [8]), 0.06 µM. In addition, the pIC50 with MCF-7/ADR cells (setting [5]) was 5.00.
`COc1cccc2c1C(=O)c1c(O)c3c(c(O)c1C2=O)C[C@@](O)(C(C)=O)C[C@@H]3O[C@H]1C[C@H](N)[C@H](O)[C@H](C)O1` [DAUN, daunorubicin, reference compound]: the pIC50 is 7.22 with MCF-7 cells (setting [2]); 7.70 in the test on PC-3 (Homo sapiens, PC-3, read-out: IC50 Values, PC-3/DMEM); 7.70 in the test on PC-3 (Homo sapiens, PC-3, read-out: IC50 Values, PC-3/RPMI-1640); 5.70 in the test on MCF-7/ADR cells (setting [5]); 8.10 in the test with LNCaP (Homo sapiens, LNCaP, read-out: IC50 Values, LNCaP/DMEM); 7.70 with LNCaP (Homo sapiens, LNCaP, read-out: IC50 Values, LNCaP/RPMI-1640). Moreover, the pIC50 in the test with DU-145 (Homo sapiens, DU-145, read-out: IC50 Values, DU-145/DMEM) was 7.60; in the test on DU-145 (Homo sapiens, DU-145, read-out: IC50 Values, DU-145/RPMI-1640), 7.00.
